A melting point compilation (Tetko et al.; mined from patent text by program, amines drawn as free bases though some values may be those of a salt)

melting point [°C]	Structure (SMILES)
59 to 62	CCc1cccc(NC(=O)C(C)(C)C)n1
100 to 102	CC(C#N)=C1CCN(c2ccc(N3C[C@H](CO)OC3=O)cc2F)CC1
223	Cc1ccc(N2C(=O)C(O)=C(C(=O)c3ccc(C(C)C)cc3)C2c2ccc(Cn3cncn3)cc2)nn1 (stereo unspecified)
106	O=C(CCCCCC(c1cc(F)ccc1F)S(=O)(=O)c1ccc(Cl)cc1)N1CCCC1 (stereo unspecified)
205 to 206	CC(Cl)C(=O)c1ccc2c(c1)CCC(=O)N2 (stereo unspecified)
101	COC(=O)[C@H](O)[C@@H](N)c1ccccc1
250	O=C(O)Cc1cc(C(=O)c2ccc(Cl)cc2)ccc1O
105 to 107	CC1(C)CC(=O)c2cc(OCc3ccccc3)ccc2O1
107 to 109	COc1cccc(-c2[nH]c3ccc(OCc4ccccc4)cc3c2C)c1
200 to 202	COCCn1cnc2ccc(-c3sc(N)nc3-c3cccc(C)n3)cc21
> 280	O=c1[nH]c2cc(Br)ccc2c(=O)n1Cc1ccc(Br)cc1F
173 to 181	COc1ccc(C=C2OC(=O)c3ccccc32)cc1[N+](=O)[O-]
> 280	CNc1cc2c(cc1C)c(=O)c(C(=O)O)cn2-c1cc(N)c(F)cc1F
156 to 157	CCOC(=O)c1ccc(-c2nc(COc3ccc(COc4nn(-c5ccccc5)cc4C=O)cc3OC)c(C)o2)s1
100 to 102	COc1ccccc1NC(=O)C1CCc2nc[nH]c2C1 (stereo unspecified)
66	CN1CCC(OC2c3cccc(Cc4ccccc4)c3CCn3cc(-c4ccccc4)nc32)CC1 (stereo unspecified)
46 to 47	O=C(NCCO)c1cc(-c2cccc3cc(Cc4cccc(C(F)(F)F)c4)sc23)ncn1
212	N#Cc1ccc(N2CCN(Cc3cnc4c(c3)NC(=O)C3CCCCN43)CC2)cc1 (stereo unspecified)
188 to 189	CS(=O)(=O)c1ccc(-c2cc(Br)nc(C(F)(F)F)c2-c2ccc(F)cc2)cc1
177 to 178	O=C(O)COc1cc(Cl)ccc1C(=O)NCc1ccc(Cl)c(Cl)c1
150 to 155	COc1ccc(C2(C34CC5CC(CC(C5)C3)C4)N=C(N)N(C)C2=O)cc1 (stereo unspecified)
133 to 134	O=C(Nc1cccc(-n2nc(C(F)(F)F)cc2C(F)(F)F)c1)c1ccc(F)cc1F
165 to 168	Cc1nc(-c2cc(Cl)ccc2Cl)n2c1nnc1ccc(F)cc12
147	CCCOc1ccc(-c2ccc(N)nn2)cc1OC

melting point [°C]	Structure (SMILES)
129	O=S(=O)(c1c(F)c(F)c(F)c(F)c1F)c1c(F)c(F)c(F)c(F)c1F
204 to 205	CCCCC1NC(C(=O)O)Cc2c1[nH]c1ccccc21 (stereo unspecified)
219 to 221	Oc1ccc(C2(c3ccc(O)c(F)c3)c3ccccc3-c3ccccc32)cc1F
115 to 117	CCOc1nc(NCc2ccco2)nc(N2CCN(Cc3ccccn3)CC2)n1
102 to 104	CC(C)(C#N)c1cc(CCCn2cncn2)cc(C(C)(C)C#N)c1
277 to 278	O=C1NC(=O)c2ccccc2/C1=C/Nc1ccc2ncccc2c1
184	CC1(c2cccc(NS(C)(=O)=O)c2)C2CN(C(=O)CCc3cccs3)CC21 (stereo unspecified)
71 to 72	CC(C)c1cccc(-c2ccc(F)cc2)c1/C=C/CO
113 to 115	COc1cc(N)c2nccc(C)c2c1Oc1cccc(C(F)(F)F)c1
120 to 121	Cc1sc(-c2ccccc2)nc1COc1ccc(C=O)cn1
86 to 89	COc1ccc(I)c(CC(=O)N(C)C)c1
190	COc1ccc(-c2ccc3cc(OC)ccc3c2)cc1
345 to 347	Cn1nc(-c2cnc3[nH]cc(C(=O)NC4CCOC4)c3n2)c2ccc(Cl)cc21 (stereo unspecified)
164 to 166	C=C(Cl)c1c(C(F)(F)F)nc(C)[nH]c1=O
132 to 133	COC(=O)C(=C1NCCCO1)[N+](=O)[O-]
95 to 96	COc1cc(Nc2c(C#N)cnc3ccc(/C=C/CCN4CCOCC4)cc23)c(Cl)cc1Cl
78 to 86	CN1C(=O)C2C3C=CC(C3)C2(c2ccc3c(c2)CCCC3)C1=O (stereo unspecified)
112 to 114	CC(Oc1ccc(-c2ccc(-c3c(Cc4ccccc4)oc4ccccc34)cc2)cc1)C(=O)O (stereo unspecified)
208	NNc1nc2ccc(OC(F)(F)F)cc2s1
222 to 224	COc1ccc(C2(C)C(=O)Nc3cc(OC)cc(Cl)c3C2=O)cc1 (stereo unspecified)
175	O=C1CCC(C(=O)c2ccccc2)N1 (stereo unspecified)
122 to 123	O=C1c2ccc(F)cc2C(=O)N1c1ccc(Cl)cc1F
91 to 92	CC(C)(C)OC(=O)ON=C(C#N)c1ccc(Cl)cc1
141 to 143	COc1cc(OC)nc(NC(=O)NS(=O)(=O)Cc2ccccc2C(=O)N(C)C)n1

melting point [°C]	Structure (SMILES)
222 to 225	COc1cc2c(cc1F)C1(CO2)C(=O)Nc2ccccc21 (stereo unspecified)
> 280	COc1cc(-n2cc(C(=O)O)c(=O)c3cc(F)c(F)c(Cl)c32)ccc1F
103	Nc1ccccc1CCN1CCN(c2ccccc2)CC1
89 to 91	COc1ccc(C=CC(=O)C2CC2)cc1OC
156 to 157	COc1nc(Cl)cnc1NS(=O)(=O)c1cccnc1-c1ccc(CC(C)C)cc1
56.5 to 58	COc1cc(Br)ccc1N
234 to 238	O=C(O)c1cn(-c2ccc(F)cn2)c2nc(Cl)c(F)cc2c1=O
181 to 186	O=C(NNc1ccccc1)c1ccc(F)cc1
75	CC(C)COCCOc1ccc(OCC(O)CNCCNC(=O)N(C)C)cc1 (stereo unspecified)
154	Nc1nc(N)c2c(I)nn(C3CC(O)C(CO)O3)c2n1 (stereo unspecified)
232 to 234	O=C(NC(c1ccccc1)c1ccccc1)N1CCC(c2ccccc2)(c2ccccc2)CC1
158 to 160	OC1CCN(c2cc(-c3ccccc3)nc(-c3ccccc3)n2)CC1
170 to 188	COc1ccc(Cn2c(=O)c(=NNc3ccccc3)c(=O)n(CC34CC5CC(CC(C5)C3)C4)c3ccccc32)cc1
225 to 228	O=S(=O)(Nc1ccc(Cl)cc1-c1nc2ccc(S(=O)(=O)N3CCOCC3)cc2[nH]1)c1ccc(Cl)cc1
185 to 187	CCNS(=O)(=O)CC(=O)C1=CNC(C)=C(C(=O)OC)C1c1cccc([N+](=O)[O-])c1 (stereo unspecified)
175 to 178	OC1(c2cc3ccccc3s2)CCN(CCC2COc3ccccc3O2)CC1 (stereo unspecified)
185 to 187	CCCOc1ncc(NC(C)C(=O)OC)cc1-c1nc2c(CCC)nn(C)c2c(=O)[nH]1 (stereo unspecified)
145 to 146	Nc1ncc(CCc2ccccc2)cc1[N+](=O)[O-]
117 to 118	CC(C)(C)OC(=O)N[C@H](CC(=O)OCc1ccccc1)C(=O)N[C@H](CO)c1ccccc1
236 to 237	Cc1ccc(-c2ccc3c(c2)C=C(C(=O)O)CO3)cc1
200 to 203	O=S(=O)(CCN1CCCCC1)Nc1cc(C(c2cc(F)ccc2F)S(=O)(=O)c2ccc(Cl)cc2)c(Cl)cn1 (stereo unspecified)
119 to 121	Cc1ccc(-c2nnc(N(CCCCOCC(=O)O)C(C)C)nc2-c2ccc(C)cc2)cc1
275 to 278	O=c1[nH]c2cc(Cl)cc(Cl)c2c(=O)n1Cc1ccccc1F
